Consider one molecule from the supplement of paper PMC12076712.

A word on the pIC50: it is the IC50 on a negative log10 scale, so that one unit is a factor of ten. High values mean a small IC50, low ones a large IC50.

Some targets named below: TYK2 (UniProt P29597); EIF2AK4 (UniProt Q9P2K8); UniProt O75716; TNIK (UniProt Q9UKE5); UniProt P80192; UniProt P19784; STK39 (UniProt Q9UEW8); PRKCB (UniProt P05771); BUB1 (UniProt O43683); UniProt Q9NSY1; MAP3K4 (UniProt Q9Y6R4); MAPK11 (UniProt Q15759).
Holding throughout (experiment): pIC50, kinobeads binding competition
Common to all, as to details: cell material: Jurkat lysate

Another assay has as its target T1, UniProt O00444.
T1 sequence (whole entry): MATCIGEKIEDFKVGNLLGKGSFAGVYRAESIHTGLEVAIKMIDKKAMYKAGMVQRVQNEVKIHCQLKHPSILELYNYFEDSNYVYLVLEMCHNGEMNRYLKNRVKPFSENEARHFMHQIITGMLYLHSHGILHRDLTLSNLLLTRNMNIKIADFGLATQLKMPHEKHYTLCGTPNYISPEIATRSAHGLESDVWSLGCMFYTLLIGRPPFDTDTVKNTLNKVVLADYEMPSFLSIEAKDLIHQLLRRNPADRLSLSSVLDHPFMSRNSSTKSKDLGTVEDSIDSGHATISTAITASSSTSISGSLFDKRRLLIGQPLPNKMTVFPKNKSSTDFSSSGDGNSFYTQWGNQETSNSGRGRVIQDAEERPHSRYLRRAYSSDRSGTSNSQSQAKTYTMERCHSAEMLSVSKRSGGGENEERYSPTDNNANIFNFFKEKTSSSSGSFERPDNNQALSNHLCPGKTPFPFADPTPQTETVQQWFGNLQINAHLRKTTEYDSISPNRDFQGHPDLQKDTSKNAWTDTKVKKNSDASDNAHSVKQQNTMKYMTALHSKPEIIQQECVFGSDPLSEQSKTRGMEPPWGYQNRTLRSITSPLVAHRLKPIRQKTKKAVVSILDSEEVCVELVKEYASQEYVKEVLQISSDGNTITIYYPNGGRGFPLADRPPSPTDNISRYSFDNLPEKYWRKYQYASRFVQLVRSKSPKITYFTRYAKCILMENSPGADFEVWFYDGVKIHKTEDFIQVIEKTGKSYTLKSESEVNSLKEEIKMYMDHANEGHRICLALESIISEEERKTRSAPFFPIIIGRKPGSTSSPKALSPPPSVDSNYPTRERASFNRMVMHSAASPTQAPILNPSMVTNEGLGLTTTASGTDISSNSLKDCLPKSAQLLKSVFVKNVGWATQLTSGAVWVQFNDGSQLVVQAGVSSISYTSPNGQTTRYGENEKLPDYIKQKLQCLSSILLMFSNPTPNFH

A further assay deals with T2, TTK (UniProt P33981).
T2 sequence (whole entry): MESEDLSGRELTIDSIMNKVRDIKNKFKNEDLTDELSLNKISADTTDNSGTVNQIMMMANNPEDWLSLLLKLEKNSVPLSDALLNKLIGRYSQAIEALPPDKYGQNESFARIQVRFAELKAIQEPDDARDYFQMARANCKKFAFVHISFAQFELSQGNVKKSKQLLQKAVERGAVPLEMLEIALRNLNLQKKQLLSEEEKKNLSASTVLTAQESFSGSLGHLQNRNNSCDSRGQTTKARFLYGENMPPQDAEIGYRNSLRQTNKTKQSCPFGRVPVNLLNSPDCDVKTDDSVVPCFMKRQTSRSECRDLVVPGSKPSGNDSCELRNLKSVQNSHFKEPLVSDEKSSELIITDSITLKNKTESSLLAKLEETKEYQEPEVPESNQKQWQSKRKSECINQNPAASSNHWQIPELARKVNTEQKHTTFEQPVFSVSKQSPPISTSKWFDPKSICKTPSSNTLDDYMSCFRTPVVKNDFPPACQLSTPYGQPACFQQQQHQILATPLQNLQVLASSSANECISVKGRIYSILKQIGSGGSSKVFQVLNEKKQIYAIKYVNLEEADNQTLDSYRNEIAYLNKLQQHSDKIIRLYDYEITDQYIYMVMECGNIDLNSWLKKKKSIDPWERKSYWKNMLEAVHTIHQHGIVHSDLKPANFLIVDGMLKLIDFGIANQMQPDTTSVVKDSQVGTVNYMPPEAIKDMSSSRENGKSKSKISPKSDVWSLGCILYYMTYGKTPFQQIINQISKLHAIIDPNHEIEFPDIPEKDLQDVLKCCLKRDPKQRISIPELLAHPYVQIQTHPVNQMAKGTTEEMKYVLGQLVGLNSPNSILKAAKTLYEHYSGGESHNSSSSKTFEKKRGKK

The target in the next assay is T3, PKMYT1 (UniProt Q99640).
T3 sequence (whole entry): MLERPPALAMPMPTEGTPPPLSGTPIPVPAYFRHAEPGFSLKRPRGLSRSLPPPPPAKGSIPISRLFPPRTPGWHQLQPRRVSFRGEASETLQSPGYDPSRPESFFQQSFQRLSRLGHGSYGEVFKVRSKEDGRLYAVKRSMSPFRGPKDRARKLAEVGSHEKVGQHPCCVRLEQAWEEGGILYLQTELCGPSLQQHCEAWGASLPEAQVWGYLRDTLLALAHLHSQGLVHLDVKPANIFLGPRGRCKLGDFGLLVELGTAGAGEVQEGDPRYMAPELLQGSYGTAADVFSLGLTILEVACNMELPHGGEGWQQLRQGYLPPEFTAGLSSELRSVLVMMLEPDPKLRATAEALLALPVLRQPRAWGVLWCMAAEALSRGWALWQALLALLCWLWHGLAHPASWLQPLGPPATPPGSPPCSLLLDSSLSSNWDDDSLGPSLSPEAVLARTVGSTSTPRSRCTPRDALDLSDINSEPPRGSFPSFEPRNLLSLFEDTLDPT

± gives the standard deviation of the averaged measurements. A value given as a limit tells only on which side of the number the result lay.

As for `CCc1cnn2c(NCc3ccc[n+]([O-])c3)cc(N3CCCC[C@H]3CCO)nc12` [dinaciclib], the pIC50 on TYK2, at EIF2AK4, at UniProt O75716, at UniProt O00444, on TNIK and on TTK was below 4.52 each time. The negative-log IC50 (pIC50) on UniProt P80192 was below 4.52; on UniProt P19784, below 4.52; at STK39 it was 5.015 ± 0.021; at PRKCB, below 4.52; at PKMYT1, below 4.52; on BUB1, below 4.52. Also, the pIC50 on UniProt Q9NSY1, at MAP3K4 and on MAPK11 was below 4.52 in each case.
